Test results taken from patent US6673800B2, “4,5,-dihydroisoxazolylakylpiperazine derivatives having selective biological activity at dopamine D3 or D4 receptor, and preparation thereof” (Korea Institute of Science and Technology, priority 2000, dated 2004).

Target: cloned human dopamine receptors D1 (Homo sapiens, UniProt P21728)
Experiment: Binding affinity to dopamine receptor, radiolabeled ligand displacement (D1)
Set-up: dose or concentration left out as unconfirmed
Description: (§1) Binding affinities of the compounds for dopamine receptors were determined indirectly by their ability to displace radiolabeled ligand from cloned human dopamine receptors. Compounds were incubated in receptor suspension to compete with the. radiolabeled ligand. The receptor-bound radiolabeled ligand was separated by filtering through Wallac glass fiber filtermat (GF/C) using Inotech cell harvester of 96-well format. The radioactivity bound to filter was counted by Micro-β counter (Wallac).
(§2) The aliquots of cloned human dopamine receptors stored at −70° C. were suspended in assay buffer and the content of receptor in each aliquot was determined by Bio-Rad DC protein assay kit to give an optimal protein (receptor) concentration obtained by preliminary receptor binding assay. Receptor suspension adjusted to optimal concentration was aliquoted in proper volume for assay and stored at −70° C. Binding assays of every compound were performed in duplicate and each different buffer solution was used for optimal assay with each subtype of dopamine receptors. Receptor binding assays were carried out in 96-well plates. Receptor suspension of 100 μl was incubated at 27° C. for 30-60 min in a final volume of 0.25 ml reaction mixture containing 50 μl of hot-ligand and 10 μl of test compound.
(§3) After incubation, the reaction mixture was washed with ice-cold 50 mM Tris-acetate buffer by rapid filtration using a Inotech cell harvester (Inotech, Switzerland) through Whatman GF/C glass fiber filter presoaked in the assay buffer. The filter was covered with MeltiLex, sealed in a sample bag followed by drying in the microwave, and counted by MicroBeta Plus(Wallac, Finland) at a counting efficiency of 30-40%.

Chain of cloned human dopamine receptors D1 (P21728 whole entry): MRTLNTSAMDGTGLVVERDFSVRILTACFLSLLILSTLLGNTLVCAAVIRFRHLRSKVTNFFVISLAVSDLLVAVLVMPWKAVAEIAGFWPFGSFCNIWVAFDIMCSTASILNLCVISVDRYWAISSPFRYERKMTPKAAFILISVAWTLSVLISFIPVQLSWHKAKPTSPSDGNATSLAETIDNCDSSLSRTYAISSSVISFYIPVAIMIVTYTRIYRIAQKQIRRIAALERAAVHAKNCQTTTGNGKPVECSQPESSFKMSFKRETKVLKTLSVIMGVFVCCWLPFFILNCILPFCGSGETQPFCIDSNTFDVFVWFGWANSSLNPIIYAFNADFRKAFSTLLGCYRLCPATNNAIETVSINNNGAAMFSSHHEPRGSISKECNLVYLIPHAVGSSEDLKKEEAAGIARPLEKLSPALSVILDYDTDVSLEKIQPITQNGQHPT

| Structure (SMILES) | Affinity to Dopamine Receptors (% Inhibition) D1 [%] |
| --- | --- |
| CCOc1ccccc1N1CCN(CCCC2CC(c3ccc(OC)c(OC)c3)=NO2)CC1 (racemic) [Compound No. 29] | 40.1 |
| CCOc1ccccc1N1CCN(CCCC2CC(c3cccs3)=NO2)CC1 (racemic) [Compound No. 30] | 57.8 |
| COc1ccccc1N1CCN(CCCCC2CC(c3ccccc3)=NO2)CC1 (racemic) [Compound No. 34] | 23.6 |
| COc1ccc(C2=NOC(CCCN3CCN(c4ccccc4)CC3)C2)cc1OC (stereo not shown) [Compound No. 7] | 9.0 |
| COc1ccc(C2=NOC(CCCN3CCN(c4ccccc4OC)CC3)C2)cc1OC (stereo not shown) [Compound No. 9] | 19.6 |
| COc1ccccc1N1CCN(CCCC2CC(c3cccs3)=NO2)CC1 (stereo not shown) [Compound No. 10] | 19.9 |

Target: cloned human dopamine receptors D2 (Homo sapiens, UniProt P14416)
Experiment: Binding affinity to dopamine receptor, radiolabeled ligand displacement (D2)
Set-up: Affinity to Dopamine Receptors (% Inhibition) D2: dose or concentration left out as unconfirmed
Description: as §1, §2, §3

Chain of cloned human dopamine receptors D2 (P14416 whole entry): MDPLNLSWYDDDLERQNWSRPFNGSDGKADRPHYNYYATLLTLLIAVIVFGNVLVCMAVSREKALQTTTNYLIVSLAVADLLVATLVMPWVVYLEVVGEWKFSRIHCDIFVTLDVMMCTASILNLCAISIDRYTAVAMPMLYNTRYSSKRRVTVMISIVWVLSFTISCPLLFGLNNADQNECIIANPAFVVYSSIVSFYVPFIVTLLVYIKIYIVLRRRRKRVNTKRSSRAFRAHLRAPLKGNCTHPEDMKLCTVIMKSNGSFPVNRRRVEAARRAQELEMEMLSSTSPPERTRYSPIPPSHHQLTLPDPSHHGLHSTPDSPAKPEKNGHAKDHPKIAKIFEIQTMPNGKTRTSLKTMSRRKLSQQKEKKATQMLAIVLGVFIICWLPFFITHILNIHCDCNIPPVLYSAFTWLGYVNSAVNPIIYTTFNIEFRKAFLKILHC

| Structure (SMILES) | Affinity to Dopamine Receptors (% Inhibition) D2 [%] | IC50 [nM] |
| --- | --- | --- |
| CCOc1ccccc1N1CCN(CCCC2CC(c3ccc(OC)c(OC)c3)=NO2)CC1 (racemic) [Compound No. 29] | 83.5 | 110 |
| CCOc1ccccc1N1CCN(CCCC2CC(c3cccs3)=NO2)CC1 (racemic) [Compound No. 30] | 88.2 | 470 |
| COc1ccccc1N1CCN(CCCCC2CC(c3ccccc3)=NO2)CC1 (racemic) [Compound No. 34] | 58.3 |  |
| COc1ccc(C2=NOC(CCCN3CCN(c4ccccc4)CC3)C2)cc1OC (stereo not shown) [Compound No. 7] | 49.0 | 9230 |
| COc1ccc(C2=NOC(CCCN3CCN(c4ccccc4OC)CC3)C2)cc1OC (stereo not shown) [Compound No. 9] | 57.7 | 1440 |
| COc1ccccc1N1CCN(CCCC2CC(c3cccs3)=NO2)CC1 (stereo not shown) [Compound No. 10] | 56.0 | 1930 |

Target: cloned human dopamine receptors D3 (Homo sapiens, UniProt P35462)
Experiment: Binding affinity to dopamine receptor, radiolabeled ligand displacement (D3)
Set-up: Affinity to Dopamine Receptors (% Inhibition) D3: dose or concentration left out as unconfirmed
Description: as §1, §2, §3

Chain of cloned human dopamine receptors D3 (P35462 whole entry): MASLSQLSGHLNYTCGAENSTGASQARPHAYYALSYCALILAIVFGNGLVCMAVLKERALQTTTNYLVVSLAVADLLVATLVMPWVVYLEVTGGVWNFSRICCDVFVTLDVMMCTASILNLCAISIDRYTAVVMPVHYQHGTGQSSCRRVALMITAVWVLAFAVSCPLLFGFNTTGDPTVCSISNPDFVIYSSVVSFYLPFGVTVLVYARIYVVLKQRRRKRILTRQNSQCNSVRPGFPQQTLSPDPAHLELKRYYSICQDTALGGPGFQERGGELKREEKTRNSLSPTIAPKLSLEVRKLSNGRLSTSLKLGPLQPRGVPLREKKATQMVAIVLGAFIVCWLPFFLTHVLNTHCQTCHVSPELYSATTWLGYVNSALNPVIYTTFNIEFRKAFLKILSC

| Structure (SMILES) | Affinity to Dopamine Receptors (% Inhibition) D3 [%] | IC50 [nM] |
| --- | --- | --- |
| CCOc1ccccc1N1CCN(CCCC2CC(c3cccs3)=NO2)CC1 (racemic) [Compound No. 30] | 101.2 | 4 |
| COc1ccccc1N1CCN(CCCCC2CC(c3ccccc3)=NO2)CC1 (racemic) [Compound No. 34] | 83.8 |  |
| COc1ccc(C2=NOC(CCCN3CCN(c4ccccc4)CC3)C2)cc1OC (stereo not shown) [Compound No. 7] | 102.5 | 21 |
| COc1ccc(C2=NOC(CCCN3CCN(c4ccccc4OC)CC3)C2)cc1OC (stereo not shown) [Compound No. 9] | 101.2 | 5 |
| COc1ccccc1N1CCN(CCCC2CC(c3cccs3)=NO2)CC1 (stereo not shown) [Compound No. 10] | 99.9 | 19 |

Target: T1, cloned human dopamine receptors D4 (Homo sapiens, UniProt P21917)
T1 sequence (P21917 1-419): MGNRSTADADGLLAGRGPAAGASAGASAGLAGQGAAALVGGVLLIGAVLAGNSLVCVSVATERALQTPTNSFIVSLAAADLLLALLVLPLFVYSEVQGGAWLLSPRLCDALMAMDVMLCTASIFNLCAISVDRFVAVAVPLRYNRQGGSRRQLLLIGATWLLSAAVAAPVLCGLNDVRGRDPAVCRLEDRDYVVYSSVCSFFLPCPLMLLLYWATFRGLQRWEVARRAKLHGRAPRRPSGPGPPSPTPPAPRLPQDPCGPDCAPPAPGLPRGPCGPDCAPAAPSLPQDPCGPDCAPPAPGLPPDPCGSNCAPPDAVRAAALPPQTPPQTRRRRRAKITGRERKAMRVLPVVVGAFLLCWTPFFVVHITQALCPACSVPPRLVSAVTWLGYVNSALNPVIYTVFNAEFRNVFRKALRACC
Experiment: Binding affinity to dopamine receptor, radiolabeled ligand displacement (D4)
Set-up: Affinity to Dopamine Receptors (% Inhibition) D4: dose or concentration left out as unconfirmed
Description: as §1, §2, §3

| Structure (SMILES) | Affinity to Dopamine Receptors (% Inhibition) D4 [%] | IC50 [nM] |
| --- | --- | --- |
| CCOc1ccccc1N1CCN(CCCC2CC(c3ccc(OC)c(OC)c3)=NO2)CC1 (racemic) [Compound No. 29] | 57.4 | 108 |
| CCOc1ccccc1N1CCN(CCCC2CC(c3cccs3)=NO2)CC1 (racemic) [Compound No. 30] | 102.3 | 11 |
| COc1ccccc1N1CCN(CCCCC2CC(c3ccccc3)=NO2)CC1 (racemic) [Compound No. 34] | 100.1 |  |
| COc1ccc(C2=NOC(CCCN3CCN(c4ccccc4)CC3)C2)cc1OC (stereo not shown) [Compound No. 7] | 103.9 | 71 |
| COc1ccc(C2=NOC(CCCN3CCN(c4ccccc4OC)CC3)C2)cc1OC (stereo not shown) [Compound No. 9] | 104.4 | 23 |
| COc1ccccc1N1CCN(CCCC2CC(c3cccs3)=NO2)CC1 (stereo not shown) [Compound No. 10] | 103.6 | 34 |
